From US7026333B1, “Retroviral protease inhibitors” (G. D. Searle & Co., priority 1999, dated 2006) come the findings set out here.

pEC50, pIC50: −log10 of the molar value.

The subject of one series is CEM cells. Description: CEM cell assay, intrinsic toxicity of test compound without virus (MTT). Particulars: 7 days, concentration reducing cellular viability by 50%. The series is classed as cell-based. The procedure: (§1) The effectiveness of the compounds tested in Part A was also determined in a CEM cell assay. The HIV inhibition assay method of acutely infected cells is an automated tetrazolium based colorimetric assay essentially that reported by Pauwles et al, J. Virol. Methods 20, 309–321 (1988). Assays were performed in 96-well tissue culture plates. CEM cells, a CD4 cell line, were grown in RPMI-1640 medium (Gibco) supplemented with a 10% fetal calf serum and were then treated with polybrene ([…]). An 80 μL volume of medium containing 1×10^4 cells was dispensed into each well of the tissue culture plate. To each well was added a 100 μL volume of test compound dissolved in tissue culture medium (or medium without test compound as a control) to achieve the desired final concentration and the cells were incubated at 37° C. for 1 hour. A frozen culture of HIV-1 was diluted in culture medium to a concentration of 5×10^4 TCID50 per mL (TCID50=the dose of virus that infects 50% of cells in tissue culture), and a 20 μL volume of the virus sample (containing 1000 TCID50 of virus) was added to wells containing test compound and to wells containing only medium (infected control cells). Several wells received culture medium without virus (uninfected control cells). Likewise, the intrinsic toxicity of the test compound was determined by adding medium without virus to several wells containing test compound. In summary, the tissue culture plates contained the following experiments:
In experiments 2 and 4, the final concentrations of test compounds were 1, 10, 100 and 500 μg/mL. Either azidothymidine (AZT) or dideoxyinosine (ddI) was included as a positive drug control. […] DMSO was added to all control wells at an appropriate concentration.
Following the addition of virus, cells were incubated at 37° C. in a humidified, 5% CO2 atmosphere for 7 days. Test compounds could be added on days 0, 2 and 5 if desired. On day 7, post-infection, the cells in each well were resuspended and a 100 μL sample of each cell suspension was removed for assay. A 20μL volume of a 5 mg/mL solution of 3-(4,5-dimethylthiazol-2-yl)-2,5-diphenyltetrazolium bromide (MTT) was added to each 100 μL cell suspension, and the cells were incubated for 4 hours at […] in a 5% CO2 environment. […] To each sample was added […] of 10% sodium dodecylsulfate in 0.01 N HCl to lyse the cells, and samples were incubated overnight. The absorbance at 590 nm was determined for each sample using a Molecular Devices microplate reader. Absorbance values for each set of wells is compared to assess viral control infection, uninfected control cell response as well as test compound by cytotoxicity and antiviral efficacy.
The calculated EC50 (effective concentration 50%, i.e., the concentration at which the inhibitor compound reduces cytopathicity by 50%) and TD50 (toxic dose 50%, i.e., the concentration at which the inhibitor compound reduces cellular viability by 50%) values for these compounds are also shown in Table 1.

In a further series the target is T1, HIV protease (Human immunodeficiency virus type 1 group M subtype B, UniProt P04585).
T1 construct: HIV protease is diluted in the assay buffer to a final enzyme concentration of 12.3 nanomolar, based on a molecular weight of 10,780
Description: Enzyme assay (HIV protease, fluorogenic substrate 2-aminobenzoyl-Ile-Nle-Phe(p-NO2)-Gln-ArgNH2). To be noted: HIV protease 12.3 nanomolar, substrate 80 μM, pH 6.4; read-out: Enzyme Inhibition (IC50). The series is classed as biochemical. The procedure:
The calculated IC50 (inhibiting concentration 50%, i.e., the concentrations at which the inhibitor compound reduces enzyme activity by 50%) values are shown in Table 1. The enzyme method is described below. The substrate is 2-aminobenzoyl-Ile-Nle-Phe(p-NO2)-Gln-ArgNH2. The positive control is MVT-101 (Miller, M. et al, Science, 246, 1149 (1989)] The assay conditions are as follows:
Assay buffer: 20 mM sodium phosphate, pH 6.4
• 20% glycerol • 1 mM EDTA • 1 mM DTT • 0.1% CHAPS
The above described substrate is dissolved in DMSO, then diluted 10 fold in assay buffer. Final substrate concentration in the assay is 80 μM.
HIV protease is diluted in the assay buffer to a final enzyme concentration of 12.3 nanomolar, based on a molecular weight of 10,780.
The final concentration of DMSO is 14% and the final concentration of glycerol is 18%. The test compound is dissolved in DMSO and diluted in DMSO to 10× the test concentration; 10 μL of the enzyme preparation is added, the materials mixed and then the mixture is incubated at ambient temperature for 15 minutes. The enzyme reaction is initiated by the addition of 40 μL of substrate. The increase in fluorescence is monitored at 4 time points (0, 8, 16 and 24 minutes) at ambient temperature. Each assay is carried out in duplicate wells.

The next series concerns HIV-1. Put plainly: CEM cell assay, HIV inhibition in acutely infected cells (MTT). Particulars: Human immunodeficiency virus 1, CCRF-CEM, 168 h; CEM cells acutely infected with HIV-1, 7 days; concentration reducing cytopathicity by 50%; read-out: Antiviral Activity in Cell Culture (EC50). The series is classed as cell-based. As for the experimental part: as §1, with “A frozen culture of HIV-1 was diluted in culture medium to a concentration of 5×10^4 TCID50 per mL (TCID50=the dose of virus that infects 50% of cells in tissue culture), and a 20 μL volume of the virus sample (containing 1000 TCID50 of virus) was added to wells containing test compound and to wells containing only medium (infected control cells). Several wells received culture medium without virus (uninfected control cells).” left out, “In summary, the tissue culture plates contained the following experiments:” left out
Following the addition of virus, cells were incubated at 37° C. in a humidified, 5% CO2 atmosphere for 7 days. […] The absorbance at 590 nm was determined for each sample using a Molecular Devices microplate reader. Absorbance values for each set of wells is compared to assess viral control infection, uninfected control cell response as well as test compound by cytotoxicity and antiviral efficacy. […]

As a reminder, the pIC50 is the IC50 on a negative log10 scale, so that one unit is a factor of ten. Usually pEC50 stands for the EC50 on a negative log10 scale, so that one unit is a factor of ten.

With `CC(C)(C)NC(=O)[C@@H]1C[C@@H]2CCCC[C@@H]2CN1C[C@@H](O)[C@H](Cc1ccccc1)NC(=O)C[C@H](NC(=O)c1ccc2ccccc2n1)C(N)=O`, the “Cell Toxicity (TD50)” value in the series on CEM cells was 5,000 nM. For `C[C@@H](C(=O)N[C@@H](Cc1ccccc1)[C@H](O)CN1C[C@H]2CCCC[C@H]2C[C@H]1C(=O)NC(C)(C)C)C(C)(C)C(=O)O`, in the series with CEM cells, the “Cell Toxicity (TD50)” value was 50,000 nM.

For the compound `C[C@@H](C(=O)N[C@@H](Cc1ccccc1)[C@H](O)CN1C[C@H]2CCCC[C@H]2C[C@H]1C(=O)NC(C)(C)C)C(C)(C)C(N)=O`, in the series with CEM cells, the “Cell Toxicity (TD50)” value is 59,000 nM. Moreover, the pIC50 on HIV protease is 8.05. Besides, the negative-log EC50 (pEC50) in the series with HIV-1 is 7.01. `COc1ccc(COC(=O)NC[C@@H](C)C(=O)N[C@@H](Cc2ccccc2)[C@H](O)CN2C[C@H]3CCCC[C@H]3C[C@H]2C(=O)NC(C)(C)C)cc1`: in the series on CEM cells, the “Cell Toxicity (TD50)” value is given as 2,000 nM. For `C[C@H](CS(C)(=O)=O)C(=O)N[C@@H](Cc1ccccc1)[C@H](O)CN1C[C@H]2CCCC[C@H]2C[C@H]1C(=O)NC(C)(C)C`, in the series on CEM cells, the “Cell Toxicity (TD50)” value is on record as 58,000 nM.
